Columns and labels:
[1] = test system: Col‐0 (wild‐type) seedlings; test: Triple response assay, wild‐type; format: in vivo, Arabidopsis thaliana; settings: dark‐grown, vs w/o ACC
Experimental: Around 10 mg of seeds was filled into a 2‐mL reaction tube and put into a desiccator with the lid opened. Additionally, a beaker with 100 mL 37% perchloric acid was put into the desiccator. 3 mL of 37% hydrochloric acid was pipetted into the beaker to start the reaction, and the lid of the desiccator was closed immediately. The seeds were incubated for 1 h. After the incubation time, the lid of the desiccator was opened slightly, while the tubes were incubated for 20 more minutes to wait for the gas to evaporate. 1 mL of sterile water was added to the reaction tubes, and the seeds were stratified by storage at 4 °C for 3 days before planting (otherwise they can be planted directly after this procedure). Before starting to plant the seeds, any material (e.g., pots and tubs) was sterilized with 70% ethanol. A mixture of soil, vermiculite, and sand (ratio 8:1:1) was prepared, and water was added in the right proportion to make the soil mix soggy but not mushy. The soil mix was sterilized by heating it in the microwave at 800 W for about 10 min. Pots were filled with the sterilized soil mix afterwards. Around 100 μL of 1% agarose in tap water was added to the reaction tubes containing the sterilized seedlings for better pipetting precision, and the seeds were planted into the soil mix. The growth of A. thaliana was performed at 22 °C, 60% humidity, and 100–120 μEinstein light intensity. The plants were watered only from the bottom every 2–3 days. After 5 weeks, the plants were big enough to grow in their own pots instead of several plants being grown crowded in one pot.
The triple response media for the agar plates was prepared by mixing 0.43% (w/v) of Murashige and Skoog (MS) salts and 1% (w/v) sucrose. The pH is adjusted to 6.0 before adding 0.7% (w/v) plant agar to the media and autoclaving it at 121 °C for 30 min. […] The seedlings were documented, and the length of the hypocotyl was analyzed using a binocular microscope and the software Motion 3.0, respectively. […]

[2] = test system: triple impα loss‐of‐function mutant seedlings; test: Triple response assay, triple impα mutants; format: in vivo, Arabidopsis thaliana; settings: 0.1 μM ACC, at least 20 seedlings per condition
Experimental: To gain further insights into the role of the IMPα superfamily for ethylene signaling, we studied multiple higher order IMPα loss‐of‐function mutants (Fig. 2). […] To check for potential differences in ethylene sensitivity, we supplemented the experiments from Fig. 2B with 0.1 and 1 μM ACC (Fig. 2C). […] These findings indicate that the mutation of three IMPα isoforms leads to diminished sensitivity in ethylene perception, supporting the pivotal role of the IMPα superfamily in ethylene signaling. However, no differences in ethylene sensing were observed among the various triple mutants, further reinforcing the hypothesis of IMPα redundancy in EIN2 transport. The deletion of an excessive number of IMPα isoforms is likely to have detrimental effects on regular plant growth and development, which has already been observed in the triple mutants (impα‐1;impα‐2;impα‐3). Due to the pivotal role of the IMPα‐IMPβ machinery in the nuclear transport of a large number of cargo proteins, we adopted an alternative strategy to investigate the role of IMPα proteins in plant ethylene signal transduction by testing their physical interaction with the ethylene key regulator EIN2.
(§1) Around 10 mg of seeds was filled into a 2‐mL reaction tube and put into a desiccator with the lid opened. Additionally, a beaker with 100 mL 37% perchloric acid was put into the desiccator. […]

[3] = test system: ein2‐1 loss‐of‐function mutant seedlings; test: Triple response assay, ethylene‐insensitive mutant; format: in vivo, Arabidopsis thaliana; settings: ein2‐1, dark‐grown, ACC in agar vs w/o ACC
Excerpt: In the presence of ethylene, dark‐grown seedlings display the characteristic phenotypic responses known as triple response. We hypothesized that nucleocytoplasmic transport and nuclear import of the EIN2 cytosolic part (CEND), which bridges ethylene signal transduction from the ER membrane to the nucleus, are mediated by the IMPα‐IMPβ transport machinery. This hypothesis is supported by the previously identified NLS motif in the EIN2 C terminus. To investigate whether any of the IMPα isoforms are implicated in ethylene signaling, A. thaliana Col‐0 (wild‐type; positive control), single loss‐of‐function mutants of the IMPα isoforms (impα1‐impα9) obtained from the Nottingham Arabidopsis Stock Centre (NASC), and ethylene‐insensitive mutant ein2‐1 (negative control) were grown in the dark in the presence of the ethylene precursor 1‐aminocyclopropane‐1‐carboxylate (ACC) and subsequently analyzed for their triple response. […] The findings on the single impα mutants indicate that nucleocytoplasmic transport and nuclear import of EIN2 CEND cannot be attributed to a single IMPα isoform, possibly because of functional redundancy among the IMPα isoforms.
as §1

IMPα7_ΔIBB = biological target: T1, IMPα7_ΔIBB (Arabidopsis thaliana, UniProt Q9M9X7); test: biochemical; format: binding
T1 construct: hexa-His (TEV site between protein and tag) (C); made in house; host or cells: E. coli BL21gold
Excerpt: Genes encoding several isoforms of the IMPα superfamily were either isolated from Arabidopsis thaliana (IMPα1, ‐2, ‐3, ‐4, ‐8) or synthetically produced by GenScript (IMPα5, ‐6, ‐7, ‐9) and cloned into the pETEV21a vector (modified version of the pET21a vector with an additional TEV cleavage site between the GOI and the His‐tag), which contains a C‐terminal hexa‐His‐tag. Only IMPα5 was additionally cloned into the pETEV16b vector (modified version of the pET16b vector with an additional TEV cleavage site between the GOI and the His‐tag), which contains an N‐terminal deca‐His‐tag (see Table S2 for primer list). The AtEIN2C^1215–1281 gene was cloned into the pETEV16b vector and additionally contained a GB1‐domain at the N terminus to enhance solubility. Most of the proteins were expressed in the E. coli BL21pRARE strain, while IMPα7, IMPα8, and ΔIBB_IMPα1 (lack of the IBB domain) were expressed using the E. coli BL21gold strain. The bacterial cultures were adjusted to an initial OD600 of 0.1 and grown in 2YT media at 37 °C until an OD600 between 0.6 and 0.8 was reached. Subsequently, the protein expression was induced with 0.5 mM IPTG. After two hours, the cells were harvested via centrifugation at 10,000 g for 10 min. IMPα5, IMPα6, IMPα7, IMPα8, ΔIBB_IMPα1, and GB1_AtEIN2C^1215–1281 were expressed at 16 °C overnight with the addition of 2% (v/v) ethanol. […]

EIN2C^479–1294 = test: In planta FLIM‐FRET, EIN2C^479–1294‐CER donor, IMPα‐YFP acceptors; format: cell-based, Arabidopsis thaliana; settings: mean, EIN2C^479–1294‐CER donor / IMPα‐YFP acceptor, N. benthamiana epidermal leaf cells
Excerpt: To further investigate the interaction between members of the IMPα superfamily and EIN2 in planta, we used in vivo fluorescence lifetime microscopy and Förster's resonance energy transfer (FLIM‐FRET). Accordingly, the C‐terminal part of EIN2 (EIN2C^479–1294) was fused to the fluorescent protein Cerulean (CER), serving as a donor, and the IMPα isoforms (IMPα1‐7) were fused to YELLOW FL[…] (YFP), serving as acceptors.
A modified version of a previously described procedure was used for the transient transformation of N. benthamiana. An overnight culture of agrobacteria was inoculated in DYT and incubated at 28°C one day before infiltration. […] For co‐infiltration, bacteria solutions were mixed in equal quantities, and Agrobacterium strain GV3101:p19 expressing the p19 silencing inhibitor was added to each mix. […]
Fluorescence lifetime imaging was performed using a protocol described previously. Fluorescence lifetime was measured at a Zeiss LSM 780 confocal microscope (40× water immersion objective, Zeiss C‐PlanApo, NA 1.2). […] Photons were detected in both donor and acceptor channels simultaneously with Tau‐SPADs (PicoQuant, Berlin, Germany). […] Internal response functions for each laser were determined by measuring the fluorescence decay of quenched Atto425 in saturated KI, using the same hardware settings as for the FRET pair of interest. […]

T1 sequence (Q9M9X7 57-528, stated change not applied): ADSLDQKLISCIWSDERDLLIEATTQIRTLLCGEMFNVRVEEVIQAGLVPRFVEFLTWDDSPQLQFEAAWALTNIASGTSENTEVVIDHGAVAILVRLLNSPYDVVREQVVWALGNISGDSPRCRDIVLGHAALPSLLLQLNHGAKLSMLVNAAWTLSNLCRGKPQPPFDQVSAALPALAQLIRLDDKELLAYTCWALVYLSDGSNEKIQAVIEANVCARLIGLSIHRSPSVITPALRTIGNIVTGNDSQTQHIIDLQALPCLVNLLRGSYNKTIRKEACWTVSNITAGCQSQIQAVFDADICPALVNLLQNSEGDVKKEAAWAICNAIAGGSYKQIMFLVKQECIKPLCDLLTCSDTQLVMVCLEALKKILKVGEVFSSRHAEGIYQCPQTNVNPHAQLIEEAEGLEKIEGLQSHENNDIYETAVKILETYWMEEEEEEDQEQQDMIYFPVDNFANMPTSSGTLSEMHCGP

## NC1(C(=O)O)CC1 [ACC, 1‐aminocyclopropane‐1‐carboxylic acid]
[1]; Col‐0, 0.1 μM ACC
  reduction in hypocotyl length: 21%
[1]; Col‐0, 1 μM ACC
  reduction in hypocotyl length: 55.5%
[1]; Col‐0, 10 μM ACC
  reduction in hypocotyl length: 56.5%
[2]
  reduction in hypocotyl length (maximum among triple mutants): ≤ 7.5%
[3]
  decrease in hypocotyl length: 10%

## CC(C)C[C@H](NC(=O)[C@H](CCCNC(=N)N)NC(=O)[C@H](CCCNC(=N)N)NC(=O)[C@H](CCCCN)NC(=O)[C@H](Cc1ccc(O)cc1)NC(=O)[C@H](CCCNC(=N)N)NC(=O)[C@H](CCCCN)NC(=O)[C@H](CC(C)C)NC(=O)c1ccc2c(c1)C(=O)OC21c2ccc(N(C)C)cc2Oc2cc(N(C)C)ccc21)C(=O)O [TAMRA‐NOP‐1]
IMPα7_ΔIBB
  Kd: 3 ± 0.3 µM

## IMPα4: A. thaliana IMPα4 fused to YFP, FRET acceptor
EIN2C^479–1294
  FRET efficiency: 4.6%

Source: article PMC12871931, “The importin‐alpha superfamily engages in ethylene signaling by shuttling [sequence] INSENSITIVE 2 from the endoplasmic reticulum to the nucleus” (The Febs Journal, 2025)
